Reference: patent US11040959B2, “Diprovocims: a new and potent class of TLR agonists” (The Scripps Research Institute, priority 2016, dated 2021)
Read-outs that look alike come from different tables or passages of the source. Values belong to the molecule of their own block, whether it stands above or below them.

Assays:
mouse macrophages = assay: stimulated release of TNF-α from mouse macrophages; type: cell-based
Excerpt: EC50 values are derived from dose-response curves for the stimulated release of TNF-α from differentiated THP-1 cells or mouse macrophages are shown beneath each appropriate structural formula of Compounds 8-12. Half maximal effective concentration (EC50) refers to the concentration of a drug, antibody or toxicant that induces a response halfway between the baseline and maximum after a specified exposure time. It is commonly used as a measure of a drug's potency.

[1] = tested on: differentiated human THP-1 cells; assay: stimulated release of TNF-α from differentiated human THP-1 cells (ELISA, dose-response); type: cell-based
Experimental: A screening campaign was conducted with nearly 100,000 compounds [(a) Whitby et al., Acc. Chem. Res. 2012, 45:1698-1709; and (b) Boger et al., Angew. Chem. Int. Ed. 2003, 42:4138-4176], using a newly developed functional assay that measured the stimulated release of TNF-α from treated human THP-1 cells partially differentiated along the macrophage line [unpublished results of the inventors and co-workers]. […] The libraries screened in the efforts represent a unique compound collection populated by nontraditional compounds [(a) Whitby et al., Acc. Chem. Res. 2012, 45:1698-1709; and (b) Boger et al., Angew. Chem. Int. Ed. 2003, 42:4138-4176] designed to target protein-protein [(a) Shaginian et al., J. Am. Chem. Soc. 2009, 131:5564-5572; and (b) Whitby et al., J. Am. Chem. Soc. 2011, 133:10184-10194] or protein-DNA interactions [Stover et al., J. Am. Chem. Soc. 2009, 131:3342-3348] as well as the major enzyme classes [Otrubova et al., Bioorg. Med. Chem. Lett. 2014, 24:3807-3813].
Hits were confirmed in an ELISA assay for stimulated TNF-α release from human PMA differentiated THP-1 cells and this assay was used for establishing dose-response curves and measured EC50 values.

[2] = Mus musculus, Macrophage, read-out: EC50, stimulated release of TNF-α from mouse macrophages
[3] = Homo sapiens, THP-1, running text, read-out: EC50, stimulated release of TNF-α from differentiated human THP-1 cells
[4] = Mus musculus, Macrophage, Scheme 1, footnote b, read-out: EC50 TNF-α release from mouse macrophages
[5] = Homo sapiens, THP-1, Scheme 1, footnote a, read-out: EC50 TNF-α release from human THP-1 cells

SMILES: O=C(N[C@H]1C[C@@H]1c1ccccc1)[C@@H]1CN(C(=O)c2ccc(C(=O)N3C[C@@H](C(=O)N[C@H]4C[C@@H]4c4ccccc4)[C@H](C(=O)N[C@H]4C[C@@H]4c4ccccc4)C3)cc2)C[C@H]1C(=O)N[C@H]1C[C@@H]1c1ccccc1 (racemic) [Compound 12, trans, trans-1,1′-Terephthaloylbis-(N^3,N^4-bis-(trans-2-phenylcyclopropyl)pyrrolidine-3,4-dicarboxamide)]
EC50 (mouse macrophages; [2]): 100 nM | EC50 [1, 3]: 10 nM | efficacy of TNF-α release compared with reference agonist ([1]; versus LPS or Pam3CSK4, side-by-side): equally efficacious with LPS

EC50 [1, 3]: 100 nM
SMILES: O=C(NCCc1ccc(F)cc1)[C@H]1CN(C(=O)c2ccc(C(=O)N3C[C@H](C(=O)NCCc4ccc(F)cc4)[C@@H](C(=O)NCCc4ccc(F)cc4)C3)cc2)C[C@@H]1C(=O)NCCc1ccc(F)cc1 (racemic) [Compound 69, 1,1′-Terephthaloylbis(N^3,N^4-bis(4-fluoro-phenethyl)-yrrolidine-trans-3,4-dicarboxamide)]

EC50 ([1]; Homo sapiens, THP-1, Table 5 footnote, racemates, TNF-α release from human differentiated THP-1 cells, read-out: EC50): 1000 nM | EC50 [1, 3]: 1000 nM
SMILES: O=C(NCCc1cccc(F)c1)[C@H]1CN(C(=O)c2ccc(C(=O)N3C[C@H](C(=O)NCCc4cccc(F)c4)[C@@H](C(=O)NCCc4cccc(F)c4)C3)cc2)C[C@@H]1C(=O)NCCc1cccc(F)c1 (racemic) [Compound 84, 1,1′-Terephthaloylbis(N^3,N^4-bis(3-fluoro-phenethyl)pyrrolidine-trans-3,4-dicarboxamide)]
fold less active (3- vs 4-fluorophenethylamide) ([1]; human THP-1 cells, racemates): > 10 fold

SMILES: O=C(NCCc1ccccc1)[C@@H]1CN(C(=O)c2ccc(C(=O)N3C[C@@H](C(=O)NCCc4ccccc4)[C@H](C(=O)N[C@H]4C[C@@H]4c4ccccc4)C3)cc2)C[C@H]1C(=O)NCCc1ccccc1 (relative stereo) [Compound 9]
activity in stimulating TNF-α release from human THP-1 cells (in words) ([1]; tested up to 5 μM where stated): inactive

EC50 [1, 3]: 80 nM
SMILES: O=C(NCCc1ccccc1)[C@@H]1CN(C(=O)c2ccc(C(=O)N3C[C@@H](C(=O)NCCc4ccccc4)[C@H](C(=O)N[C@H]4C[C@@H]4c4ccccc4)C3)cc2)C[C@H]1C(=O)N[C@H]1C[C@@H]1c1ccccc1 (stereo in doubt) [Compound 10, trans,trans-1, 1′-Terephthaloylbis(N^3-phenethyl-N^4-(trans-2-phenylcyclopropyl)pyrrolidine-3,4-dicarboxamide)]

EC50 (mouse macrophages; table of 125-132 (one lipid side chain, R and S), mouse macrophages, read-out: EC50 (nM) (mouse)): > 5000 nM | EC50 ([1]; table of 125-132 (one lipid side chain, R and S), human THP-1 cells, read-out: EC50 (nM) (THP-1)): 5 nM
SMILES: CCCCCCCCCCCCCCCCNC(=O)C1CCN(C(=O)c2ccc(C(=O)N3C[C@@H](C(=O)N[C@H]4C[C@@H]4c4ccccc4)[C@H](C(=O)N[C@H]4C[C@@H]4c4ccccc4)C3)cc2)C1 (stereo in doubt) [Compound 129, (3S,4S)-1-(4-((S)-3-(Hexadecylcarbamoyl)-pyrrolidine-1-carbonyl)benzoyl)—N^3,N^4-bis((1S,2R)-2-phenylcyclopropyl)pyrrolidine-3,4-dicarboxamide]

SMILES: O=C(N[C@H]1C[C@@H]1c1ccccc1)[C@@H]1CN(C(=O)c2ccc(C(=O)N3C[C@@H](C(=O)N[C@H]4C[C@@H]4c4ccccc4)[C@H](C(=O)N[C@H]4C[C@@H]4c4ccccc4)C3)cc2)C[C@H]1C(=O)N[C@H]1C[C@@H]1c1ccccc1 [Compound 3, (3S,3′S,4S,4′S)-1,1′-Terephthaloylbis(N^3,N^4-bis((1S,2R)-2-phenylcyclopropyl)pyrrolidine-3,4-dicarboxamide)]
EC50 (mouse macrophages; Macrophage, Table 1, TNF-α release from mouse macrophages, read-out: EC50 (nM) (mouse)): 1 nM | EC50 (mouse macrophages; [4]): 1 nM | EC50 (mouse macrophages; [2]): 1 nM

EC50 (mouse macrophages; Macrophage, Table 7, TNF-α release from mouse macrophages, read-out: EC50 (nM) (mouse)): > 5000 nM | EC50 ([1]; Homo sapiens, THP-1, Table 7, TNF-α release from human THP-1 cells, read-out: EC50 (nM) (THP-1)): 50 nM | EC50 [1, 3]: 50 nM
SMILES: O=C(NCCc1ccc(F)cc1)[C@@H]1CN(C(=O)c2ccc(C(=O)N3C[C@@H](C(=O)NCCc4ccc(F)cc4)[C@H](C(=O)NCCc4ccc(F)cc4)C3)cc2)C[C@H]1C(=O)NCCc1ccc(F)cc1 [Compound 4, (3S,3′S,4S,4′S)-1,1′-Terephthaloylbis(N^3,N^4-bis(4-fluorophenethyl)-pyrrolidine-3,4-dicarboxamide)]
fold more potent than the all racemate ([1]; human THP-1 cells, single enantiomer versus its all racemate mixture): 3 fold

EC50 (mouse macrophages; [4]): > 5000 nM | EC50 [1, 5]: > 5000 nM
SMILES: O=C(N[C@H]1C[C@@H]1c1ccccc1)[C@H]1CN(C(=O)c2ccc(C(=O)N3C[C@H](C(=O)N[C@H]4C[C@@H]4c4ccccc4)[C@@H](C(=O)N[C@H]4C[C@@H]4c4ccccc4)C3)cc2)C[C@@H]1C(=O)N[C@H]1C[C@@H]1c1ccccc1 [Compound 19, (3R,3′R,4R,4′R)-1,1′-Terephthaloylbis(N^3,N^4-bis((1S,2R)-2-phenylcyclopropyl)pyrrolidine-3,4-dicarboxamide)]

EC50 (mouse macrophages; [4]): > 5000 nM | EC50 [1, 5]: > 5000 nM
SMILES: O=C(N[C@@H]1C[C@H]1c1ccccc1)[C@@H]1CN(C(=O)c2ccc(C(=O)N3C[C@@H](C(=O)N[C@@H]4C[C@H]4c4ccccc4)[C@H](C(=O)N[C@@H]4C[C@H]4c4ccccc4)C3)cc2)C[C@H]1C(=O)N[C@@H]1C[C@H]1c1ccccc1 [Compound 20, (3S,3′S,4S,4′S)-1,1′-Terephthaloylbis-(N^3,N^4-bis((1R,2S)-2-phenylcyclopropyl)pyrrolidine-3,4-dicarboxamide)]

EC50 (mouse macrophages; [4]): > 5000 nM | EC50 [1, 5]: > 5000 nM
SMILES: O=C(N[C@@H]1C[C@H]1c1ccccc1)[C@H]1CN(C(=O)c2ccc(C(=O)N3C[C@H](C(=O)N[C@@H]4C[C@H]4c4ccccc4)[C@@H](C(=O)N[C@@H]4C[C@H]4c4ccccc4)C3)cc2)C[C@@H]1C(=O)N[C@@H]1C[C@H]1c1ccccc1 [Compound 21, (3R,3′R,4R,4′R)-1,1′-Terephthaloylbis-(N^3,N^4-bis((1R,2S)-2-phenylcyclopropyl)pyrrolidine-3,4-dicarboxamide)]

EC50 (mouse macrophages; [4]): 150 nM | EC50 [1, 5]: 3 nM
SMILES: O=C(N[C@H]1C[C@@H]1c1ccccc1)[C@H]1CN(C(=O)c2ccc(C(=O)N3C[C@@H](C(=O)N[C@H]4C[C@@H]4c4ccccc4)[C@H](C(=O)N[C@H]4C[C@@H]4c4ccccc4)C3)cc2)C[C@@H]1C(=O)N[C@H]1C[C@@H]1c1ccccc1 [Compound 22, (3S,4S)-1-(4-((3R,4R)-3,4-Bis(((1S,2R)-2-phenylcyclopropyl)carbamoyl)pyrrolidine-1-carbonyl)-benzoyl)—N^3,N^4-bis((1S,2R)-2-phenylcyclopropyl)-pyrrolidine-3,4-dicarboxamide]

EC50 [1, 3]: 200 nM
SMILES: O=C(N[C@H]1C[C@@H]1c1ccccc1)[C@H]1CCN(C(=O)c2ccc(C(=O)N3C[C@@H](C(=O)N[C@H]4C[C@@H]4c4ccccc4)[C@H](C(=O)N[C@H]4C[C@@H]4c4ccccc4)C3)cc2)C1 [Compound 29, (3S,4S)—N^3,N^4-Bis((1S,2R)-2-phenyl-cyclopropyl)-1-(4-((S)-3-(((1S,2R)-2-phenyl-cyclopropyl)-carbamoyl)-pyrrolidine-1-carbonyl)-benzoyl)pyrrolidine-3,4-dicarboxamide]
fold less active/potent than diprovocim-1 (3) ([1]; human THP-1 cells): 2000 fold

SMILES: O=C(CCN(CCC(=O)N[C@H]1C[C@@H]1c1ccccc1)C(=O)c1ccc(C(=O)N(CCC(=O)N[C@H]2C[C@@H]2c2ccccc2)CCC(=O)N[C@H]2C[C@@H]2c2ccccc2)cc1)N[C@H]1C[C@@H]1c1ccccc1 [Compound 34, N^1,N^1,N^4,N^4-Tetrakis(3-oxo-3-(((1S,2R)-2-phenyl-cyclopropyl)amino)propyl)terephthalamide]
activity in stimulating TNF-α release from mouse macrophages (in words) (mouse macrophages; tested up to 5 μM where stated): inactive

EC50 ([1]; Homo sapiens, THP-1, running text b169, read-out: EC50, stimulated release of TNF-α from human THP-1 cells): > 5000 nM
SMILES: O=C(NCCc1ccc(F)cc1)[C@H]1CN(C(=O)c2ccc(C(=O)N3C[C@H](C(=O)NCCc4ccc(F)cc4)[C@@H](C(=O)NCCc4ccc(F)cc4)C3)cc2)C[C@@H]1C(=O)NCCc1ccc(F)cc1 [Compound 98, (3R,3′R,4R,4′R)-1,1′-Terephthaloyl-bis(N^3,N^4-bis-(4-fluorophenethyl)pyrrolidine-3,4-dicarboxamide)]
fold less potent than the all S enantiomer 4 ([1]; human THP-1 cells): > 100 fold

EC50 [1, 3]: 70 nM
SMILES: O=C(NCCc1ccc(F)cc1)[C@H]1CN(C(=O)c2ccc(C(=O)N3C[C@@H](C(=O)NCCc4ccc(F)cc4)[C@H](C(=O)NCCc4ccc(F)cc4)C3)cc2)C[C@@H]1C(=O)NCCc1ccc(F)cc1 [Compound 99, (3S,4S)-1-(4-((3R,4R)-3,4-Bis((4-fluorophen-ethyl)carbamoyl)pyrrolidine-1-carbonyl)benzoyl)—N^3,N^4-bis(4-fluorophenethyl)pyrrolidine-3,4-dicarboxamide]
